Laboratory results: PubChem BioAssay AID1963451 (Molecular Pharmacology Branch, DTP, NCI, 2024)

Test system: 521955-158-R6-J3-PDC complex spheroid growth, % test/control
Assay: Anticancer human tumor 521955-158-R6-J3-PDC patient-derived pancreatic carcinoma cell line growth inhibition [Asc]
Conditions: for IC50: curve of first compound; for viability, T/C: stronger effect = lower value
Outline: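 Tumor cells were grown as complex spheroids with human endothelial cells (HUVEC) and human mesenchymal stem cells as stroma. Agents were tested alone and in combination, in half-log steps down from the clinical Cmax, or from 10 microM where Cmax was unknown.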

[1] = second compound 0.00316 µM, first compound 0.0316 µM
[2] = second compound 0.00316 µM, first compound 0.1 µM
[3] = second compound 0.00316 µM, first compound 0.316 µM
[4] = second compound 0.00316 µM, first compound 1 µM
[5] = second compound 0.00316 µM, first compound 3.16 µM
[6] = second compound 0.00316 µM, first compound 10 µM
[7] = second compound 0.01 µM, first compound 0.0316 µM
[8] = second compound 0.01 µM, first compound 0.1 µM
[9] = second compound 0.01 µM, first compound 0.316 µM
[10] = second compound 0.01 µM, first compound 1 µM
[11] = second compound 0.01 µM, first compound 3.16 µM
[12] = second compound 0.01 µM, first compound 10 µM
[13] = second compound 0.0316 µM, first compound 0.0316 µM
[14] = second compound 0.0316 µM, first compound 0.1 µM
[15] = second compound 0.0316 µM, first compound 0.316 µM
[16] = second compound 0.0316 µM, first compound 1 µM
[17] = second compound 0.0316 µM, first compound 3.16 µM
[18] = second compound 0.0316 µM, first compound 10 µM
[19] = second compound 0.1 µM, first compound 0.0316 µM
[20] = second compound 0.1 µM, first compound 0.1 µM
[21] = second compound 0.1 µM, first compound 0.316 µM
[22] = second compound 0.1 µM, first compound 1 µM
[23] = second compound 0.1 µM, first compound 3.16 µM
[24] = second compound 0.1 µM, first compound 10 µM
[25] = second compound 0.316 µM, first compound 0.0316 µM
[26] = second compound 0.316 µM, first compound 0.1 µM
[27] = second compound 0.316 µM, first compound 0.316 µM
[28] = second compound 0.316 µM, first compound 1 µM
[29] = second compound 0.316 µM, first compound 3.16 µM
[30] = second compound 0.316 µM, first compound 10 µM
[31] = second compound 1 µM, first compound 0.0316 µM
[32] = second compound 1 µM, first compound 0.1 µM
[33] = second compound 1 µM, first compound 0.316 µM
[34] = second compound 1 µM, first compound 1 µM
[35] = second compound 1 µM, first compound 3.16 µM
[36] = second compound 1 µM, first compound 10 µM
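Note: spheroids exposed to compounds for 7 days.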
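Throughout, for viability, T/C: 100% = DMSO vehicle control wells.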

C=C(F)C(=O)N1CCN(c2nc(OCC3CCCN3C)nc3c2CCN(c2cccc4cccc(Cl)c24)C3)CC1CC#N (stereo unspecified) + CNC(C)C(=O)NC1CN(S(=O)(=O)c2cccc(S(=O)(=O)N3CCC4CCC(C(=O)NC(c5ccccc5)c5ccccc5)N4C(=O)C(NC(=O)C(C)NC)C3)c2)CCC2CCC(C(=O)NC(c3ccccc3)c3ccccc3)N2C1=O
IC50 (second compound 0.00316 µM): 4.74 µM | IC50 (second compound 0.01 µM): 4.13 µM | IC50 (second compound 0.0316 µM): 3.96 µM | IC50 (second compound 0.1 µM): 4.13 µM | IC50 (second compound 0.316 µM): 3.84 µM | IC50 (second compound 1 µM): 3.46 µM | viability, T/C [1]: 92.6% | viability, T/C [2]: 88.5% | viability, T/C [3]: 81.2% | viability, T/C [4]: 77.6% | viability, T/C [5]: 76.8% | viability, T/C [6]: 0.24% | viability, T/C [7]: 87.4% | viability, T/C [8]: 83% | viability, T/C [9]: 80.5% | viability, T/C [10]: 66.9% | viability, T/C [11]: 69.4% | viability, T/C [12]: 0.28% | viability, T/C [13]: 95.6% | viability, T/C [14]: 98.2% | viability, T/C [15]: 73.7% | viability, T/C [16]: 71.2% | viability, T/C [17]: 70.2% | viability, T/C [18]: 0.21% | viability, T/C [19]: 84.9% | viability, T/C [20]: 74.2% | viability, T/C [21]: 76.4% | viability, T/C [22]: 69.7% | viability, T/C [23]: 66.7% | viability, T/C [24]: 0.28% | viability, T/C [25]: 79.6% | viability, T/C [26]: 80.6% | viability, T/C [27]: 77.1% | viability, T/C [28]: 68.8% | viability, T/C [29]: 62.5% | viability, T/C [30]: 0.26% | viability, T/C [31]: 70.8% | viability, T/C [32]: 77.2% | viability, T/C [33]: 80.2% | viability, T/C [34]: 71.5% | viability, T/C [35]: 54.4% | viability, T/C [36]: 0.32%

C=CC(=O)N1CCN(c2nc(=O)n(-c3c(C)ccnc3C(C)C)c3nc(-c4c(O)cccc4F)c(F)cc23)C(C)C1 (stereo unspecified) + CNC(C)C(=O)NC1CN(S(=O)(=O)c2cccc(S(=O)(=O)N3CCC4CCC(C(=O)NC(c5ccccc5)c5ccccc5)N4C(=O)C(NC(=O)C(C)NC)C3)c2)CCC2CCC(C(=O)NC(c3ccccc3)c3ccccc3)N2C1=O
IC50 (second compound 0.00316 µM): > 10 µM | IC50 (second compound 0.01 µM): > 10 µM | IC50 (second compound 0.0316 µM): > 10 µM | IC50 (second compound 0.1 µM): > 10 µM | IC50 (second compound 0.316 µM): > 10 µM | IC50 (second compound 1 µM): > 10 µM | viability, T/C [1]: 98.2% | viability, T/C [2]: 110% | viability, T/C [3]: 116% | viability, T/C [4]: 121% | viability, T/C [5]: 98.8% | viability, T/C [6]: 80.4% | viability, T/C [7]: 121% | viability, T/C [8]: 85.3% | viability, T/C [9]: 89.8% | viability, T/C [10]: 94.9% | viability, T/C [11]: 105% | viability, T/C [12]: 81.3% | viability, T/C [13]: 95.2% | viability, T/C [14]: 76.5% | viability, T/C [15]: 108% | viability, T/C [16]: 95.1% | viability, T/C [17]: 104% | viability, T/C [18]: 70.8% | viability, T/C [19]: 92.2% | viability, T/C [20]: 78.7% | viability, T/C [21]: 88% | viability, T/C [22]: 108% | viability, T/C [23]: 93% | viability, T/C [24]: 66.7% | viability, T/C [25]: 89.7% | viability, T/C [26]: 91.6% | viability, T/C [27]: 79.2% | viability, T/C [28]: 107% | viability, T/C [29]: 100% | viability, T/C [30]: 84.2% | viability, T/C [31]: 81.4% | viability, T/C [32]: 82.5% | viability, T/C [33]: 89.5% | viability, T/C [34]: 88.7% | viability, T/C [35]: 94.6% | viability, T/C [36]: 83.5%

CCN1C(C(=O)NC23CCC(C(=O)O)(CC2)CC3)C(c2cccc(Cl)c2F)C2(C(=O)Nc3cc(Cl)ccc32)C12CCCCC2 (stereo unspecified) + CNC(C)C(=O)NC1CN(S(=O)(=O)c2cccc(S(=O)(=O)N3CCC4CCC(C(=O)NC(c5ccccc5)c5ccccc5)N4C(=O)C(NC(=O)C(C)NC)C3)c2)CCC2CCC(C(=O)NC(c3ccccc3)c3ccccc3)N2C1=O
IC50 (second compound 0.00316 µM): > 3 µM | IC50 (second compound 0.01 µM): > 3 µM | IC50 (second compound 0.0316 µM): > 3 µM | IC50 (second compound 0.1 µM): > 3 µM | IC50 (second compound 0.316 µM): > 3 µM | IC50 (second compound 1 µM): > 3 µM | viability, T/C (second compound 0.00316 µM, first compound 0.00949 µM): 110% | viability, T/C (second compound 0.00316 µM, first compound 0.03 µM): 110% | viability, T/C (second compound 0.00316 µM, first compound 0.0949 µM): 89.7% | viability, T/C (second compound 0.00316 µM, first compound 0.3 µM): 111% | viability, T/C (second compound 0.00316 µM, first compound 0.949 µM): 99.5% | viability, T/C (second compound 0.00316 µM, first compound 3 µM): 97.5% | viability, T/C (second compound 0.01 µM, first compound 0.00949 µM): 111% | viability, T/C (second compound 0.01 µM, first compound 0.03 µM): 90.1% | viability, T/C (second compound 0.01 µM, first compound 0.0949 µM): 99.4% | viability, T/C (second compound 0.01 µM, first compound 0.3 µM): 98.8% | viability, T/C (second compound 0.01 µM, first compound 0.949 µM): 102% | viability, T/C (second compound 0.01 µM, first compound 3 µM): 103% | viability, T/C (second compound 0.0316 µM, first compound 0.00949 µM): 106% | viability, T/C (second compound 0.0316 µM, first compound 0.03 µM): 78.3% | viability, T/C (second compound 0.0316 µM, first compound 0.0949 µM): 91.3% | viability, T/C (second compound 0.0316 µM, first compound 0.3 µM): 96.3% | viability, T/C (second compound 0.0316 µM, first compound 0.949 µM): 85.9% | viability, T/C (second compound 0.0316 µM, first compound 3 µM): 85.3% | viability, T/C (second compound 0.1 µM, first compound 0.00949 µM): 86.8% | viability, T/C (second compound 0.1 µM, first compound 0.03 µM): 92.4% | viability, T/C (second compound 0.1 µM, first compound 0.0949 µM): 81.9% | viability, T/C (second compound 0.1 µM, first compound 0.3 µM): 92% | viability, T/C (second compound 0.1 µM, first compound 0.949 µM): 93.3% | viability, T/C (second compound 0.1 µM, first compound 3 µM): 96.4% | viability, T/C (second compound 0.316 µM, first compound 0.00949 µM): 70.1% | viability, T/C (second compound 0.316 µM, first compound 0.03 µM): 82.4% | viability, T/C (second compound 0.316 µM, first compound 0.0949 µM): 97.7% | viability, T/C (second compound 0.316 µM, first compound 0.3 µM): 83.3% | viability, T/C (second compound 0.316 µM, first compound 0.949 µM): 82.1% | viability, T/C (second compound 0.316 µM, first compound 3 µM): 88.2% | viability, T/C (second compound 1 µM, first compound 0.00949 µM): 85.2% | viability, T/C (second compound 1 µM, first compound 0.03 µM): 102% | viability, T/C (second compound 1 µM, first compound 0.0949 µM): 90.1% | viability, T/C (second compound 1 µM, first compound 0.3 µM): 83% | viability, T/C (second compound 1 µM, first compound 0.949 µM): 84.9% | viability, T/C (second compound 1 µM, first compound 3 µM): 96.4%
